Literature values, collected in patent US20070028930A1, “Active agent and formulations to minimize or alleviate bladder urgency and irritation and/or to enhance sexual function” (Delithe Natural Products Inc., priority 2005, published 2007).

Test system: bladder
Settings: 10 mg/kg dose, rats

Structure (SMILES): CNCC[C@H](Oc1cccc2ccccc12)c1cccs1 [Duloxetine]
- efficacy in in vivo bladder studies: effective
